Article PMC11892739, “Site-specific molecular glues for the 14-3-3/Tau pS214 protein–protein interaction via reversible covalent imine tethering” (RSC Medicinal Chemistry, 2025)
Entries after “also recorded” stand apart in the source; their conditions may differ.

Legend:
[1] = target: T1, 14-3-3γ/Tau pS214 interaction (Homo sapiens, UniProt P61981); experiment: Fluorescence anisotropy 14-3-3γ titration with compound and monovalent Tau pS214 peptide; type: binding; settings: for apparent cooperativity factor (app. α), 14-3-3γ/Tau pS214: 2D titrations, 14-3-3γ titrated at varied compound concentrations, saturation of the ratio
T1 construct: made in house; host or cells: NiCo21 (DE3) E. coli
T1 sequence (P61981 1-247): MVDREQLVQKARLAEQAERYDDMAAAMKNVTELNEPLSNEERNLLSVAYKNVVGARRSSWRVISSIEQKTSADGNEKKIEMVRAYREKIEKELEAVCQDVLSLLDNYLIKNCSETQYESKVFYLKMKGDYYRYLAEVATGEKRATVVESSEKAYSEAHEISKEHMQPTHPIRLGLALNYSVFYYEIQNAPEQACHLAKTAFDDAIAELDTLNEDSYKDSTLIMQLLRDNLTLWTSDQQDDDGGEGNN
Procedure: FA assays in which 14-3-3γ was titrated to a constant concentration of compound (250 μM) in the presence of the distinct monovalent Tau peptide (10 nM) were performed.
The determined stabilization factors are concentration-dependent (here 250 μM of compound) and might differ based on assay design. […] The app. α-factors of these compounds for both 14-3-3/Tau complexes were determined by 14-3-3γ titrations in the presence of varied concentrations of the particular compound (Fig. 5d and e). Both compounds reached saturation for both 14-3-3γ/Tau complexes enabling accurate determination of the α-factor. The app. α-factors of aldehydes 1 and 18 were plotted for both 14-3-3γ/Tau complexes to investigate phospho-binding site selective cooperativity (Fig. 5f and h). To do so, the stabilization factors at a given compound concentration were plotted against the compound concentration, leading to the determination of the app. α-factors. […]
chromatography (HisTrap high performance cartridges, Cytiva). Typically two 5 mL columns were used for a 2 L culture in which the lysate was loaded on the column, washed with 10 CV wash buffer (50 mM Hepes, pH 8.0, 300 mM NaCl, 25 mM imidazole, 2 mM βME), and eluted with several fractions (2-4 CV) of elution buffer (50 mM Hepes, pH 8.0, 300 mM NaCl, 250 mM imidazole, 2 mM βME). Fractions containing the 14-3-3 protein were combined and dialyzed into 25 mM HEPES pH 8.0, 200 mM NaCl, 10 mM MgCl2, 2 mM βME, followed by dialysis into 25 mM HEPES, 100 mM NaCl, 10 mM MgCl2, 500 μM TCEP (adjusted to pH 8.0). Dialyzed protein was concentrated to ∼40 mg/mL, analyzed by Q -Tof LC/MS, and aliquots were flash -frozen for storage at −80 °C. […]
0.1% (v/v) Tween20, 0.1% (w/v) BSA). Dilution series were made in polystyrene low -volume 384 -well plates (Corning #4514, Black Round Bottom). Measurements were performed directly after plate preparation, using a Tecan SPARK plate reader at room temperature ( λex: 485±20 nm; λem: 535±25 nm; mirror: automatic; flashes: 30; settle time: 1 ms; gain: optimal; Z -position: calculated from well). Wells containing only fluorescein labelled peptide were used to set as G -factor calibrated from these wells. All data were analyzed using GraphPad Prism (10.0.1) and fitted with a four -parameter logistic model (4PL) to determine binding affinities (dissociation constant, KD). All data shown is background corrected for the signal without 14 -3-3ζ and the mean and standard deviation of technical duplicate is plotted, assay performed in a scientific duplicate for hit compounds.
Fluorescence Anisotropy – 14-3-3 titrations in the presence of compound To characterize the affinity of the Tau peptides for 14-3-3 in the presence of compound, 14-3-3ζ or γ was titrated in a 2-fold dilution series starting at 400 (for the 14-3-3ζ titrations to Tau pS2) or 800 (for the 14-3-3γ titrations to Tau pS214 or pS324) µM. 14-3-3 was added to 10 nM of fluorescein-labeled peptide (Tau pS2, Tau pS214 or Tau pS324) in the presence of 250 µM compound (1% DMSO). The assays were performed in a similar way as described above. Data shown is the average and standard deviation of a technical duplicate, top plateau corrected where needed, assay performed in a scientific duplicate. […]
The peptide screen was performed in a similar way as the 14-3-3ζ titration in the precence of compound.
14-3-3ζ was titrated in a 2-fold dilution series (starting at 400 µM 14-3-3ζ) to 100 nM of fluorescein-labeled peptides and 250 µM compound 18 (1% DMSO) in FA buffer (10 mM HEPES pH 7.4, 150 mM […]
Data shown is the average of a scientific triplicate. […]
DSF was performed using 40 µl samples containing 2.5 µM 14 -3-3ζ, 25 µM Tau peptide (Tau pS2, Tau pS214 or Tau pS324), […] (1% DMSO) and 5x ProteoOrange (Lumiprobe, 5000x stock in DMSO) in 10 mM HEPES, 150 mM NaCl, 50 µM TCEP (pH 7.4). The samples were heated from 35 °C to 79°C at a rate of 0.3 °C per 15 s in a C FX96 Touch Real-Time PCR Detection System (Bio -Rad). Fluorescence […]

[2] = target: 14-3-3γ (Homo sapiens, UniProt P61981); experiment: 19F-NMR spectroscopy of fluorinated analogs at varying 14-3-3 concentrations; type: binding; settings: 125 μM stabilizer, 14-3-3 0-250 μM, no Tau peptide
Procedure: Fig. 3 a Dose–response fluorescence anisotropy data of compound titrations to 10 nM FITC-labeled Tau pS2 peptide and 100 nM 14-3-3ζ. […] Mean of three individually performed experiments (see ESI ^† Fig. S8 for the protein titrations). e Differential scanning fluorimetry assay results. Identified melting temperatures (Tm) of 14-3-3γ alone (2.5 μM) and in the presence of Tau pS2 peptide (25 μM) and additionally with selected compounds (75 μM).
This stepwise mechanism has been described in detail for related benzaldehyde stabilizers and the 14-3-3/Pin1 interaction.[34] However, the imidazolyl-benzaldehydes might also show an intrinsic binding affinity for 14-3-3. To elucidate the underlying processes, we performed ^19F-NMR spectroscopy studies (Fig. 3f) with the fluorinated analogs 20 and 21. At a constant stabilizer concentration (125 μM), the 14-3-3 concentration was varied from 0 μM to 250 μM.

Row | SMILES | SF250μM for the 14-3-3γ/Tau pS214 complex ([1]; 250 μM compound, 10 nM Tau pS214 peptide, internal DMSO reference) | apparent cooperativity factor (app. α), 14-3-3γ/Tau pS214 [1] | binding to 14-3-3 by 19F-NMR (in words) [2]
1 | CCc1ccc(-c2nccn2-c2ccc(C=O)c(Br)c2)cc1 [Compound 18] | 8.6 | 10.2 | –
2 | O=Cc1ccc(-n2ccnc2-c2ccccc2)cc1Br [Compound 1] | – | 3.8 | –
3 | O=Cc1ccc(-n2ccnc2-c2ccc(OC(F)(F)F)cc2)cc1Br [Compound 21] | – | – | ligand binding to 14-3-3γ; also recorded: formation of the binary 14-3-3/stabilizer complex
4 | O=Cc1ccc(-n2ccnc2-c2ccc(C(F)(F)F)cc2)cc1Br [Compound 20] | – | – | formation of the binary 14-3-3/stabilizer complex
